One compound from US6046238A, “Method for treating or preventing the spread of acne vulgaris” (TriStrata, Inc., priority 1999, dated 2000) can be followed below.

As usually defined, the MIC is the lowest concentration that inhibits growth of the organism.

In brackets after ≈: the same amount, converted by molar mass. Where two headings read alike, the source gives them in different places.

Assay [1] is described as follows: topical treatment of nail infections. It is filed as in vivo, human. The conditions noted are these: non-synergistic composition, twice daily. The text has this: The participating subjects in the present study were instructed to apply twice daily the composition containing phenyl 2-acetoxyethanoic acid or diphenyl 2-acetoxyethanoic acid with or without clotrimazole as an additional antimicrobial agent.
In order to determine the antimicrobial effect of an aryl 2-acetoxyethanoicacid, a standard test method of Minimum Inhibitory Concentration (MIC) against the growth of 10 bacteria was used. To determine a prophylactic effect against the development of, as well as a topical effect in the treatment of, body foul door, eleven human subjects participated in this study. […] Scientific and test results are overviewed as follows.

Assay [2] is described as follows: topical treatment of folliculitis and perifolliculitis. Format: in vivo, human. The conditions noted are these: 0.9%, twice daily; nine patients. How it is done: Nine patients having various degrees of folliculitis and perifolliculitis participated in this study. A test composition containing 0.9% phenyl 2-acetoxyethanoic acid or diphenyl 2-acetoxyethanoic acid was prepared by dissolving 0.9 g compound in 79.1 ml 2-propanol, 15 ml butane-1,3-diol and 5 ml nonoxynol-6. The composition was packaged in one-ounce bottles. The patients were instructed to apply the test composition twice daily on the infected skin lesions and involved areas. Topical applications were continued up to 8 weeks.

The nature of assay [3]: reversal of corticosteroid unresponsiveness in psoriasis. It is filed as in vivo, human. As to conditions: added once daily to corticosteroid twice daily; seven patients. How it is done:
To determine the therapeutic responsive effect of an aryl 2-acetoxyethanoicacid against psoriasis seven patient participated in this study. A test composition was prepared by dissolving 1 g phenyl 2-acetoxyethanoic acid or diphenyl 2-acetoxyethanoic acid in 2 ml ethanol. The solution thus obtained was mixed with 60 g petrolatum and 37 g mineral oil. The anhydrous ointment thus formulated was packaged in one-ounce jars.
When the drug unresponsiveness to a corticosteroid occurred, the participating patients were instructed to apply in addition the test composition once daily to the lesions on the left side of the body only. Topical applications of the corticosteroid were continued twice daily to both sides of the body. […] While psoriatic lesions on the right side of the body remained unresponsive to the topical corticosteroid, the lesions on the left side started to clear after 3 to 4 weeks of additional topical application with the composition containing an aryl 2-acetoxyethanoic acid.
At this time the patients were instructed to shift the additional topical application to the lesions on the right side instead of the left side of the body. The psoriatic lesions on the right side of the body began to clear after 3 to 4 weeks of additional topical application with the composition containing aryl 2-acetoxyethanoic acid.

For assay [4], the system named is ten different species of bacteria. Briefly: MIC Agar Dilution Test, panel of ten bacteria. The conditions noted are these: with or without 10% lipid materials. It is filed as cell-based. The text has this: (§1) The following strains of microorganisms were used in Minimum Inhibitory Concentration (MIC) tests for phenyl 2-acetoxyethanoic acid in this example and for benzoyl peroxide, chlorhexidine gluconate and triclosan in the following examples. In total, five strains were used for S. aureus, five strains were used for S. epidermidis, two strains were used for M. sedentarius, three strains were used for M. luteus, two strains were used for B. epidermis, three strains were used for C. minutissium, one strain was used for S. marcescens, three strains were used for P. aeruginosa, four strains were used for E. coli, and thirty-two strains were used for P. acnes.
(§2) Antimicrobial effects were determined based on MIC Agar Dilution Test utilizing Trypticase Soy Agar II (BBL) incorporation plates with and without 10% intralipid (Kabi Pharmacia Inc.). Initially, phenyl 2-acetoxyethanoic acid was prepared as a 2 mg/ml (0.2%) solution in water. This solution with serial dilution was incorporated into the test agar plates. The MIC test gave similar results when the same species but a different strain was used.
(§3) Under the same test conditions described in Example 1, benzoyl peroxide was prepared as a 2.5 mg/ml (0.25%) solution in water. This solution with serial dilution was incorporated into the test agar plates. Typical test results are shown as follows.
(§4) Under the same test conditions described in Example 1, chlorhexidine gluconate was prepared as a 2 mg/ml (0.2%) solution in water. This solution with serial dilution was incorporated into the test agar plates. Typical test results are shown as follows.
(§5) Under the same test conditions described in Example 1, triclosan was prepared as a 10 mg/ml (1%) solution in water. This solution with serial dilution was incorporated into the test agar plates. Typical test results are shown as follows.
In order to determine the antimicrobial effect of an aryl 2-acetoxyethanoicacid, a standard test method of Minimum Inhibitory Concentration (MIC) against the growth of 10 bacteria was used. To determine a prophylactic effect against the development of, as well as a topical effect in the treatment of, body foul door, eleven human subjects participated in this study. More than twenty human subjects participated in a study to determine whether the compositions containing an aryl 2-acetoxyethanoic acid were therapeutically effective for topical treatment of folliculitis and other skin lesions, nail infections and mucosal infections caused by microbial infections. Scientific and test results are overviewed as follows.
(§6) Ten different species of bacteria were used in Minimum Inhibitory Concentration (MIC) tests. The bacteria include S. aureus, S. epidermidis,M. sedentarius, M. luteus, B. epidermis, C. minutissium, S. marcescens, P. aeruginosa, E. coli, and P. acnes. In addition various sources and strains of these bacteria were also included in the tests, and up to 32 different strains of P. acnes were used.
(§7) The test substance selected from phenyl 2-acetoxyethanoic acid, benzoyl peroxide, chlorhexidine gluconate and triclosan was dissolved in water, and the solution with serial dilution was incorporated into the test agar plates. The plates containing different concentrations of test substance were inoculated with a strain of bacterium. MIC is defined as the lowest concentration of the test substance in the plate in which there is no growth of the microorganism.
On the technique in general: In agar dilution the substance is mixed into plates at graded concentrations.

In another assay the test system is Serratia marcescens. Briefly: MIC Agar Dilution Test, Serratia marcescens. It is filed as cell-based. The conditions noted are these: S. marcescens.
From the text: as §1, §2, §3, §4, §5, §6, §7

Turning to `CC(=O)OC(C(=O)O)c1ccccc1` (centres unmarked) [phenyl 2-acetoxyethanoic acid], the “disappearance of nail infections” value in assay [1] is listed as “usually disappeared within one to several months”. The “deeper lesions of papules” value in assay [2] is given as “eradicated or substantially improved after 4 to 8 weeks of topical applications”. In addition, the “superficial folliculitis and perifolliculitis lesions” value in assay [2] is listed as “eradicated or substantially improved after a few days of topical applications”. In addition, the “onset of improvement of psoriatic lesions, left side” value in assay [3] is given as “began to improve after one week”. The “inhibitory effects against the growth of all ten bacteria” value in assay [4] is “had inhibitory effects against all of the above bacteria”; in assay [4] (listed as Phenyl 2-acetoxyethanoic acid), “showed inhibitory effects against the growth of all ten bacteria tested”. In addition, the MIC is 1000 µg/mL (≈ 5.15 mM) in the assay with Serratia marcescens (10% intralipid, read-out: MIC Lipid) and 1000 µg/mL (≈ 5.15 mM) with Serratia marcescens (no lipid, read-out: MIC No Lipid).
